Experimental data: patent US8980888B2, “Pyrazole derivative” (Mochida Pharmaceutical Co., Ltd., priority 2013, dated 2015)

Target: T1, Human PDE10 (Homo sapiens, UniProt Q9Y233)
T1 construct: purchased BPA Bioscience (so in the source)
Experiment: Human PDE10 inhibitory effect (IMAP TR-FRET enzyme inhibition assay)
Assay type: biochemical
Conditions: PDE10 inhibitory activity, cAMP substrate
Procedure: (Evaluation of Enzyme Inhibitory Activity: Human PDE10 Inhibitory Effect)
IMAP TR-FRET Phosphodiersterase Evaluation Assay Kit (Molecular Device) was used for the measurement. Ten μL of a diluted test compound having each concentration and 5 μL of the enzyme PDE10 (BPA Bioscience) that had been diluted to 2 ng/mL with 1×IMAP Reaction Buffer (prepared with 5× included with the kit, 10 mM Tris-HCl, pH=7.2, 10 mM MgCl2, 0.05% NaN3, and 0.1% BSA) containing 0.1% BSA were added to a 384-well plate (Corning). The obtained mixture was then pre-incubated at room temperature for 5 minutes. Thereafter, 5 μL of cAMP substrate solution which was included with the kit and diluted to 400 nM with 1×IMAP Reaction Buffer containing 0.1% BSA, was added to the reaction solution, and the obtained mixture was reacted at room temperature for 60 minutes. Thereafter, 60 μL of an IMAP TR-FRET Binding solution included with the kit was further added to the reaction solution, and the obtained mixture was then left for 3 hours or more. Subsequently, using ARVO SX (PerkinElmer), the fluorescent intensity of Terbium (Emission=490 nm) and TR-FRET (Emission=520 nm) in the reaction solution were measured at an excitation wavelength of 340 nm, so as to calculate the amount of the generated 5′-AMP. The count of a well to which a solvent had been added instead of the test compound was set at 0%, and the count of a well to which the enzyme PDE10 had not been added was set at 100%. Thus, the inhibitory activity of each test compound was calculated.
The PDE10 inhibitory activity of the test compound was indicated with an IC50 value. […] The test compounds are shown in Table 3 (Table 3-1 and Table 3-2).

T1 sequence (Q9Y233 whole entry): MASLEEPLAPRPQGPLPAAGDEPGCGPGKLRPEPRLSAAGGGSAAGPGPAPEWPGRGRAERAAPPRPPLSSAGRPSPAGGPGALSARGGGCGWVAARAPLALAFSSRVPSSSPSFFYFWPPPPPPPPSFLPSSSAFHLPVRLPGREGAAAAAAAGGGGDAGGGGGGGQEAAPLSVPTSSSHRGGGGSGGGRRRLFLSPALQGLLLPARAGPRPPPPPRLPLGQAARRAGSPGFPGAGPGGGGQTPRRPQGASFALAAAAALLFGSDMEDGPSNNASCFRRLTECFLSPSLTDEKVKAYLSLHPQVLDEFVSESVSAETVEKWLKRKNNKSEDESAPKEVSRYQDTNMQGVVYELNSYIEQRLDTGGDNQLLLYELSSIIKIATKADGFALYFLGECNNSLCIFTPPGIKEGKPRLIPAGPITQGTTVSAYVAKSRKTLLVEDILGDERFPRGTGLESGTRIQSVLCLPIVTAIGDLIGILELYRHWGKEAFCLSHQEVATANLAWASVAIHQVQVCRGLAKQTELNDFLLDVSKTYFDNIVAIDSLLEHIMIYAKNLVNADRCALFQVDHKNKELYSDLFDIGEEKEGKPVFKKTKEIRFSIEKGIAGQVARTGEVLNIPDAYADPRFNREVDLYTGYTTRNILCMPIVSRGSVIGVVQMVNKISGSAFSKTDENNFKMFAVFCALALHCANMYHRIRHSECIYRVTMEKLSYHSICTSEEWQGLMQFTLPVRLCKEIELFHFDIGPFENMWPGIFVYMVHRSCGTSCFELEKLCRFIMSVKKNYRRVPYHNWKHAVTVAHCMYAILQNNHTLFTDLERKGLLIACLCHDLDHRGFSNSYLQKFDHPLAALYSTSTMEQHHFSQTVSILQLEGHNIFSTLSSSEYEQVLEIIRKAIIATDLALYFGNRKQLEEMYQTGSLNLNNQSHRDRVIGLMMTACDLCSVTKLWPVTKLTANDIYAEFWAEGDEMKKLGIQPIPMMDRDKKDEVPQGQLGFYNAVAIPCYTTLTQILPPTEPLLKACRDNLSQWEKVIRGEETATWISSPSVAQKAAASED

IC50	Structure (SMILES)
< 5 nM	C[C@H]1CCCN1c1nc2cc(NC(=O)c3c(-c4nc(C(F)F)cs4)cnn3C)ccn2n1 [Example 4.1, (S)-4-(4-(difluoromethyl)thiazol-2-yl)-1-methyl-N-(2-(2-methylpyrrolidin-1-yl)-[1,2,4]triazolo[1,5-a]pyridin-7-yl)-1H-pyrazole-5-carboxamide]
< 5 nM	C[C@H]1CCCN1c1nc2cc(NC(=O)c3c(-c4nc(C(F)F)c(Cl)s4)cnn3C)ccn2n1 [Example 4.2, (S)-4-(5-chloro-4-(difluoromethyl)thiazol-2-yl)-1-methyl-N-(2-(2-methylpyrrolidin-1-yl)-[1,2,4]triazolo[1,5-a]pyridin-7-yl)-1H-pyrazole-5-carboxamide]
< 5 nM	C[C@H]1CCCN1c1nc2cc(NC(=O)c3c(-c4cccc(C(F)(F)F)n4)cnn3C)ccn2n1 [Example 4.3, (S)-1-methyl-N-(2-(2-methylpyrrolidin-1-yl)-[1,2,4]triazolo[1,5-a]pyridin-7-yl)-4-(6-(trifluoromethyl)pyridin-2-yl)-1H-pyrazole-5-carboxamide]
< 5 nM	C[C@H]1CCCN1c1nc2cc(NC(=O)c3c(-c4nc(C(F)(F)F)cs4)cnn3C)ccn2n1 [Example 4.10]
< 5 nM	Cc1cc(C)nc(-c2cnn(C)c2C(=O)Nc2ccn3nc(N4CC[C@H](F)C4)nc3c2)c1 [Example 4.20, (S)-4-(4,6-dimethylpyridin-2-yl)-N-(2-(3-fluoropyrrolidin-1-yl)-[1,2,4]triazolo[1,5-a]pyridin-7-yl)-1-methyl-1H-pyrazole-5-carboxamide]
< 5 nM	Cc1ccnc(-c2cnn(C)c2C(=O)Nc2ccn3nc(N4CCCC4)nc3c2)c1 [Example 4.30, 1-methyl-4-(4-methylpyridin-2-yl)-N-(2-(pyrrolidin-1-yl)-[1,2,4]triazolo[1,5-a]pyridin-7-yl)-1H-pyrazole-5-carboxamide]
5 to 100 nM	C[C@@H]1CN(c2nc3cc(NC(=O)c4c(-c5nc(C(F)F)c(Cl)s5)cnn4C)ccn3n2)C[C@H](C)O1 [Example 4.36, 4-(5-chloro-4-(difluoromethyl)thiazol-2-yl)-N-(2-((2S,6R)-2,6-dimethylmorpholino)-[1,2,4]triazolo[1,5-a]pyridin-7-yl)-1-methyl-1H-pyrazole-5-carboxamide]
< 5 nM	Cc1sc(-c2cnn(C)c2C(=O)NC2CCn3nc(-c4ccccc4)nc3C2)nc1C(F)F (stereo not shown) [Example 5.1, 4-(4-(difluoromethyl)-5-methylthiazol-2-yl)-1-methyl-N-(2-phenyl-5,6,7,8-tetrahydro-[1,2,4]triazolo[1,5-a]pyridin-7-yl)-1H-pyrazole-5-carboxamide]
5 to 100 nM	Cn1ncc(-c2nc(C(F)F)cs2)c1C(=O)NC1CCn2nc(-c3ccc(F)cc3)nc2C1 (stereo not shown) [Example 5.2, 4-(4-(difluoromethyl)thiazol-2-yl)-N-(2-(4-fluorophenyl)-5,6,7,8-tetrahydro-[1,2,4]triazolo[1,5-a]pyridin-7-yl)-1-methyl-1H-pyrazole-5-carboxamide]
< 5 nM	Cn1ncc(-c2nc(C(F)F)c(Cl)s2)c1C(=O)NC1CCn2nc(-c3ccc(F)cc3)nc2C1 (stereo not shown) [Example 5.3, 4-(5-chloro-4-(difluoromethyl)thiazol-2-yl)-N-(2-(4-fluorophenyl)-5,6,7,8-tetrahydro-[1,2,4]triazolo[1,5-a]pyridin-7-yl)-1-methyl-1H-pyrazole-5-carboxamide]
< 5 nM	Cc1nc(-c2cnn(C)c2C(=O)NC2CCn3nc(-c4ccccc4)nc3C2)sc1C (stereo not shown) [Example 5.4, 4-(4,5-dimethylthiazol-2-yl)-1-methyl-N-(2-phenyl-5,6,7,8-tetrahydro-[1,2,4]triazolo[1,5-a]pyridin-7-yl)-1H-pyrazole-5-carboxamide]
5 to 100 nM	Cn1ncc(-c2nc(C(F)F)c(C3CC3)s2)c1C(=O)NC1CCn2nc(-c3ccccc3)nc2C1 (stereo not shown) [Example 5.8, 4-(5-cyclopropyl-4-(difluoromethyl)thylthiazol-2-yl)-1-methyl-N-(2-phenyl-5,6,7,8-tetrahydro-[1,2,4]triazolo[1,5-a]pyridin-7-yl)-1H-pyrazole-5-carboxamide]

More lines, now with the values behind:

Structure (SMILES)	IC50
COc1cc(-c2cnn(C)c2C(=O)Nc2cc3nc(-c4ccccc4)nn3cc2F)nc(OC)n1 [Example 3.40, 4-(2,6-dimethoxypyrimidin-4-yl)-N-(6-fluoro-2-phenyl-[1,2,4]triazolo[1,5-a]pyridin-7-yl)-1-methyl-1H-pyrazole-5-carboxamide]	< 5 nM
Cc1ncc(C)c(-c2cnn(C)c2C(=O)Nc2cc3nc(-c4ccccc4C)nn3cc2F)n1 [Example 3.50, 4-(2,5-dimethylpyrimidin-4-yl)-N-(6-fluoro-2-(o-tolyl)-[1,2,4]triazolo[1,5-a]pyridin-7-yl)-1-methyl-1H-pyrazole-5-carboxamide]	< 5 nM
Cn1ncc(-c2nc(C(F)(F)F)cs2)c1C(=O)NC1CCn2nc(-c3ccccc3)nc2C1 (stereo not shown) [Example 5.9]	5 to 100 nM
Cn1ncc(-c2nc(C#N)cs2)c1C(=O)NC1CCn2nc(-c3ccccc3)nc2C1 (stereo not shown) [Example 5.10, 4-(4-cyanothiazol-2-yl)-1-methyl-N-(2-phenyl-5,6,7,8-tetrahydro-[1,2,4]triazolo[1,5-a]pyridin-7-yl)-1H-pyrazole-5-carboxamide]	5 to 100 nM
CCOCCc1sc(-c2cnn(C)c2C(=O)NC2CCn3nc(-c4ccccc4)nc3C2)nc1C (stereo not shown) [Example 5.11, 4-(5-(2-ethoxyethyl)-4-methylthiazol-2-yl)-1-methyl-N-(2-phenyl-5,6,7,8-tetrahydro-[1,2,4]triazolo[1,5-a]pyridin-7-yl)-1H-pyrazole-5-carboxamide]	5 to 100 nM
CCc1nnc(-c2cnn(C)c2C(=O)NC2CCn3nc(-c4ccccc4)nc3C2)s1 (stereo not shown) [Example 5.12, 4-(5-ethyl-1,3,4-thiadiazol-2-yl)-1-methyl-N-(2-phenyl-5,6,7,8-tetrahydro-[1,2,4]triazolo[1,5-a]pyridin-7-yl)-1H-pyrazole-5-carboxamide]	5 to 100 nM
Cc1nc(-c2cnn(C)c2C(=O)NC2CCn3nc(-c4ccccc4)nc3C2)c(Br)s1 (stereo not shown) [Example 5.13, 4-(5-bromo-2-methylthiazol-4-yl)-1-methyl-N-(2-phenyl-5,6,7,8-tetrahydro-[1,2,4]triazolo[1,5-a]pyridin-7-yl)-1H-pyrazole-5-carboxamide]	5 to 100 nM
Cc1cnc(C)c(-c2cnn(C)c2C(=O)NC2CCn3nc(-c4ccccc4)nc3C2)n1 (stereo not shown) [Example 5.14, 4-(3,6-dimethylpyrazin-2-yl)-1-methyl-N-(2-phenyl-5,6,7,8-tetrahydro-[1,2,4]triazolo[1,5-a]pyridin-7-yl)-1H-pyrazole-5-carboxamide]	5 to 100 nM
Cc1nsc(-c2cnn(C)c2C(=O)NC2CCn3nc(-c4ccccc4)nc3C2)n1 (stereo not shown) [Example 5.15, 1-methyl-4-(3-methyl-1,2,4-thiadiazol-5-yl)-N-(2-phenyl-5,6,7,8-tetrahydro-[1,2,4]triazolo[1,5-a]pyridin-7-yl)-1H-pyrazole-5-carboxamide]	5 to 100 nM
COC[C@H]1CCCN1c1nc2n(n1)CCC(NC(=O)c1c(-c3nc(C(F)F)cs3)cnn1C)C2 (stereo partly drawn) [Example 5.16, 4-(4-(difluoromethyl)thiazol-2-yl)-N-(2-((R)-2-(methoxymethyl)pyrrolidin-1-yl)-5,6,7,8-tetrahydro-[1,2,4]triazolo[1,5-a]pyridin-7-yl)-1-methyl-1H-pyrazole-5-carboxamide]	5 to 100 nM
